# Several values for one entry are separate records, joined by “and”; a condition that tells them apart may be missing. Identical values can stand only once.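 Compound exposure: 48 hours, 5 concentrations, 96-well plates. GI50 is the concentration that inhibits growth by half. TGI is the concentration that stops growth completely.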
# Columns and labels:
# Assay in all cases: NCI-60 cell line screen, 48 h
# SR leukemia = tested on: SR leukemia
# HT29 colon = tested on: HT29 colon
# KM12 colon = tested on: KM12 colon
# SK-MEL-2 melanoma = tested on: SK-MEL-2 melanoma
# OVCAR-3 ovarian = tested on: OVCAR-3 ovarian
# SNB-19 CNS = tested on: SNB-19 CNS
# ACHN renal = tested on: ACHN renal
# SF-268 CNS = tested on: SF-268 CNS
# MOLT-4 leukemia = tested on: MOLT-4 leukemia
# PC-3 prostate = tested on: PC-3 prostate
Compound,GI50 (SR leukemia),TGI (SR leukemia) [nM],GI50 (HT29 colon),TGI (HT29 colon),GI50 (KM12 colon),TGI (KM12 colon),GI50 (SK-MEL-2 melanoma),TGI (SK-MEL-2 melanoma),GI50 (OVCAR-3 ovarian),TGI (OVCAR-3 ovarian),GI50 (SNB-19 CNS),TGI (SNB-19 CNS),GI50 (ACHN renal),TGI (ACHN renal),GI50 (SF-268 CNS),TGI (SF-268 CNS),GI50 (MOLT-4 leukemia),TGI (MOLT-4 leukemia),GI50 (PC-3 prostate),TGI (PC-3 prostate)
O=C1/C(=C/c2ccc(F)cc2)CN(Cc2cn(CCNc3ccnc4cc(Cl)ccc34)nn2)C/C1=C\c1ccc(F)cc1,333 nM,1660,680 nM,2090 nM,328 nM,1190 nM,1940 nM,3730 nM,1240 nM,2500 nM,1570 nM,2920 nM,1680 nM,3040 nM,1520 nM,2910 nM,2380 nM,7080 nM,1160 nM,2600 nM
NS(=O)(=O)OC[C@H]1O[C@@H](n2cnc3c(N[C@H]4CCc5ccccc54)ncnc32)[C@H](O)[C@@H]1O,36.8 nM,> 52600,327 nM,5550 nM,525 nM,2580 nM,98 nM,434 nM,40.9 nM,145 nM,90.2 nM,2050 nM,167 nM,570 nM,122 nM,449 nM,220 nM,1990 nM,337 nM,2140 nM
CCCCCc1c(C)[nH]c(/C=C2\N=C(c3ccc[nH]3)C=C2Oc2ccc(OC)cc2)c1C,32.1 nM and 29.1 nM,,68 nM and 21.4 nM,1940 nM and 1260 nM,55.5 nM and 31.4 nM,622 nM and 185 nM,116 nM and 29.9 nM,302 nM and 83.6 nM,156 nM and 41.4 nM,511 nM and 318 nM,440 nM and 98 nM,1990 nM,180 nM and 48.2 nM,,154 nM and 52.6 nM,1920 nM and 1460 nM,107 nM and 48.1 nM,1170 nM and 1670 nM,106 nM and 27.5 nM,1030 nM
COc1cc(OC)cc(-c2n[nH]nc2-c2ccc3c(c2)OCO3)c1,43.6 nM,11600,392 nM,12500 nM,70 nM,11900 nM,245 nM,55700 nM,74.5 nM,378 nM,501 nM,> 100000 nM,705 nM,> 100000 nM,2370 nM,> 100000 nM,572 nM,51800 nM,255 nM,43700 nM
Oc1ccc(Br)cc1CN1CCN(Cc2ccc(Cl)cc2)CC1,19100 nM,80900,23200 nM,62500 nM,26300 nM,> 100000 nM,13200 nM,40300 nM,26300 nM,> 100000 nM,37800 nM,> 100000 nM,31700 nM,> 100000 nM,31500 nM,> 100000 nM,26700 nM,> 100000 nM,23900 nM,> 100000 nM
COc1ccc(CNCCN2C(=O)c3ccc4c5c(ccc(c35)C2=O)C(=O)N(CCNCc2ccc(OC)cc2)C4=O)cc1,220 nM,984,122 nM,403 nM,200 nM,623 nM,313 nM,1140 nM,159 nM,573 nM,230 nM,717 nM,312 nM,1560 nM,284 nM,1170 nM,282 nM,920 nM,387 nM,1960 nM
CN1CCN(c2nc(C3=C(c4c[nH]c5ccccc45)C(=O)NC3=O)c3ccccc3n2)CC1,11600 nM,36200,14000 nM and 12300 nM,65000 nM and 43400 nM,4430 nM and 4800 nM,65000 nM and 24300 nM,12800 nM and 20200 nM,25800 nM and 38800 nM,16200 nM and 19400 nM,44800 nM and 41600 nM,27200 nM and 23300 nM,65000 nM and 49200 nM,14900 nM and 20400 nM,52400 nM and > 100000 nM,17200 nM and 17700 nM,40600 nM and 36600 nM,7610 nM and 10200 nM,35900 nM and 54800 nM,27200 nM and 18300 nM,65000 nM and 43600 nM
COc1cc(C2C3=C(COC3=O)N(CCO)c3cc4c(cc32)OCCO4)cc(OC)c1O (configuration not stated),1860 nM,> 50000,1670 nM,> 18500 nM,1500 nM,> 37000 nM,,> 13400 nM,947 nM,2290 nM,2110 nM,> 50000 nM,5940 nM,> 50000 nM,3380 nM,> 50000 nM,3680 nM,> 50000 nM,2170 nM,> 50000 nM
CC([C@H]1CCC2C3CCC4C(=O)C(NC=O)=CC[C@]4(C)C3CC[C@@]21C)N(C)C (some centres not stated),1030 nM,6500,505 nM,2370 nM,2880 nM,14200 nM,7700 nM,25200 nM,2700 nM,10200 nM,8390 nM,22100 nM,4860 nM,17200 nM,2170 nM,5480 nM,2550 nM,10200 nM,2510 nM,14500 nM
O=C(O)CSc1ccn(Cc2ccccc2)c1,,> 100000,,> 100000 nM,,> 100000 nM,,> 100000 nM,,> 100000 nM,,> 100000 nM,,> 100000 nM,,> 100000 nM,,> 100000 nM,,> 100000 nM
